Test results from patent EP2487157A1, “Enantioselective synthesis method of 4-aminoalcoholquinoline derivatives and the use” (Université de Picardie Jules Verne, priority 2011, dated 2012).
Values after ≈ are worked out from the molar mass of the structure shown. Like-named read-outs stand apart in the source and are kept apart here.

Columns and labels:
[1] = system: Plasmodium falciparum chloroquine resistant (W2); experiment: Antimalarial test, tritiated hypoxanthine incorporation, chloroquine resistant clone W2; assay type: cell-based; conditions: read-out: 50% inhibitory concentration followed by uncertainty about the value expressed in percentage
Description: (§1) Screenings of the compound according to the present invention (1f, 1h, 1i) and their isomers (1a, 1c, 1d)on strains of Plasmodium falciparum sensitive (3D7) and chloroquine resistant (W2) were realized.
(§2) The Clones of W2 and 3D7 were grown. […] Melfloquine (MQ) at the same concentrations and chloroquine (CQ) at the concentrations adapted to each clone were used as the Controls. 8 negative controls were distributed on each plate.
(§3) Then, the molecules to be tested were diluted extemporaneously in the above preparation of the plates. The growth medium was deposited after drying plates. The study was initiated when the growth medium was at the ring stage and then stopped after 1 parasitic cycle (45h).
(§4) The activity was calculated by using the Pk-Fit software on all the experimental points obtained for each molecule (except the highest concentration). The results shown in table 5 are expressed in nM and correspond to calculate a 50% inhibitory concentration followed by un certainty about the value expressed in percentage. Table 5. The biological effect of the compounds on Plasmodium falciparum

SAAM 95 = experiment: Antibacterial test, MIC by CLSI broth dilution; assay type: cell-based, Staphylococcus aureus; conditions: SAAM 95, clinical strain resistant to methicillin; 18 to 24 h at 37°C
Description: (§5) The minimum inhibitory concentrations (MICs) were determined according to the recommendations of the Clinical and Laboratory Standards Institute (CLSI)^[27]. […] After incubation for 18 to 24 h (48 h for Enterococcus faecalis) at 37°C, the MIC was determined as the product concentration of the first well with no visual signs of bacterial growth (no disorder in the well). […] Table6. The antibacterial effects of the compounds

SAAM 98 = experiment: Antibacterial test, MIC by CLSI broth dilution; assay type: cell-based, Staphylococcus aureus; conditions: SAAM 98, clinical strain resistant to methicillin; 18 to 24 h at 37°C
Description: as §5

SAAM 69 = experiment: Antibacterial test, MIC by CLSI broth dilution; assay type: cell-based, Staphylococcus aureus; conditions: SAAM 69, clinical strain resistant to methicillin; 18 to 24 h at 37°C
Description: as §5

SAAM 86 = experiment: Antibacterial test, MIC by CLSI broth dilution; assay type: cell-based, Staphylococcus aureus; conditions: SAAM 86, clinical strain resistant to methicillin; 18 to 24 h at 37°C
Description: as §5

SAAM 12 = experiment: Antibacterial test, MIC by CLSI broth dilution; assay type: cell-based, Staphylococcus aureus; conditions: SAAM 12, clinical strain resistant to methicillin; 18 to 24 h at 37°C
Description: as §5

SAAM 27 = experiment: Antibacterial test, MIC by CLSI broth dilution; assay type: cell-based, Staphylococcus aureus; conditions: SAAM 27, clinical strain resistant to methicillin; 18 to 24 h at 37°C
Description: as §5

SAAM 64 = experiment: Antibacterial test, MIC by CLSI broth dilution; assay type: cell-based, Staphylococcus aureus; conditions: SAAM 64, clinical strain resistant to methicillin; 18 to 24 h at 37°C
Description: as §5

SAAM 51 = experiment: Antibacterial test, MIC by CLSI broth dilution; assay type: cell-based, Staphylococcus aureus; conditions: SAAM 51, clinical strain resistant to methicillin; 18 to 24 h at 37°C
Description: as §5

P. aeruginosa DSM 1117 = experiment: Antibacterial test, MIC by CLSI broth dilution; assay type: cell-based; conditions: 18 to 24 h at 37°C, Mueller-Hinton
Description: as §5

S. aureus CIP 103429 = experiment: Antibacterial test, MIC by CLSI broth dilution; assay type: cell-based; conditions: 18 to 24 h at 37°C, Mueller-Hinton
Description: as §5

E. coli DSM 1103 = experiment: Antibacterial test, MIC by CLSI broth dilution; assay type: cell-based; conditions: 18 to 24 h at 37°C, Mueller-Hinton
Description: as §5

E. faecalis CIP 103214 = experiment: Antibacterial test, MIC by CLSI broth dilution; assay type: cell-based, Enterococcus faecalis; conditions: 48 h at 37°C, Mueller-Hinton
Description: as §5

[2] = system: Plasmodium falciparum sensitive (3D7); experiment: Antimalarial test, tritiated hypoxanthine incorporation, sensitive clone 3D7; assay type: cell-based; conditions: read-out: 50% inhibitory concentration followed by uncertainty about the value expressed in percentage
Description: as §1, §2, §3, §4

CNS adenosine receptors = conditions: result in words, from literature; cited from earlier work
[3] = system: Sierra Leone and Indochina P. falciparum strains; conditions: ratio of IC50 values against Sierra Leone and Indochina P. falciparum strains; cited from earlier work
[4] = W2 clone, chloroquine resistant, 1 parasitic cycle (45h), bracket = uncertainty in %
[5] = 3D7 clone, sensitive, 1 parasitic cycle (45h), bracket = uncertainty in %

| Compound | IC50 [1, 4] | minimum inhibitory concentrations (MICs) (SAAM 95) | minimum inhibitory concentrations (MICs) (SAAM 98) | minimum inhibitory concentrations (MICs) (SAAM 69) | minimum inhibitory concentrations (MICs) (SAAM 86) | minimum inhibitory concentrations (MICs) (SAAM 12) | minimum inhibitory concentrations (MICs) (SAAM 27) | minimum inhibitory concentrations (MICs) (SAAM 64) | minimum inhibitory concentrations (MICs) (SAAM 51) | minimum inhibitory concentrations (MICs) (P. aeruginosa DSM 1117) | minimum inhibitory concentrations (MICs) (S. aureus CIP 103429) | minimum inhibitory concentrations (MICs) (E. coli DSM 1103) | minimum inhibitory concentrations (MICs) (E. faecalis CIP 103214) | IC50 [2, 5] | binding to CNS adenosine receptors (CNS adenosine receptors) | more potent than the (-)-enantiomer by a factor [3] | IC50 ([1]; W2, 45 h) | IC50 ([2]; 3D7, 45 h) |
| --- | --- | --- | --- | --- | --- | --- | --- | --- | --- | --- | --- | --- | --- | --- | --- | --- | --- | --- |
| O[C@H](c1cc(C(F)(F)F)nc2c(C(F)(F)F)cccc12)[C@@H]1CCCCN1 (relative stereo) [MQ, (±)-(R*,S*)-α-2-piperidinyl-2,8-bis(trifluoromethyl)-4-quinolinemethanol, reference compound] | 0.0265 µM | 16 µg/mL (≈ 42.3 µM) | 32 µg/mL (≈ 84.6 µM) | 16 µg/mL (≈ 42.3 µM) | 16 µg/mL (≈ 42.3 µM) | 16 µg/mL (≈ 42.3 µM) | 16 µg/mL (≈ 42.3 µM) | 32 µg/mL (≈ 84.6 µM) | 16 µg/mL (≈ 42.3 µM) | >128 µg/mL | 16 to 32 µg/mL | 64 µg/mL (≈ 169 µM) | 16 to 32 µg/mL | 0.0522 µM |  |  |  |  |
| O[C@H](c1cc(C(F)(F)F)nc2c(C(F)(F)F)cccc12)[C@@H]1CCCCN1 (single isomer, unassigned) [(+)-enantiomer of the mefloquine] |  |  |  |  |  |  |  |  |  |  |  |  |  |  | without significant activity | 1.69 |  |  |
| O[C@@H](c1cc(C(F)(F)F)nc2c(C(F)(F)F)cccc12)[C@H]1CCCCN1 (single isomer, unassigned) [(-)-enantiomer of mefloquine] |  |  |  |  |  |  |  |  |  |  |  |  |  |  | binds to CNS adenosine receptors |  |  |  |
| CCN(CC)CCCC(C)Nc1ccnc2cc(Cl)ccc12 (stereo not drawn) [CQ, chloroquine, reference compound] |  |  |  |  |  |  |  |  |  |  |  |  |  |  |  |  | 0.572 µM | 0.0325 µM |
| O[C@@H](CNCc1ccccc1)c1cc(C(F)(F)F)nc2c(C(F)(F)F)cccc12 [Compound 1a, (R)-2-(benzylamino)-1-(2,8-bis(trifluoromethyl)quinolin-4-yl)ethanol] | 0.0411 µM | 4 µg/mL (≈ 9.65 µM) | >128 µg/mL | 8 µg/mL (≈ 19.3 µM) | 8 µg/mL (≈ 19.3 µM) | 4 µg/mL (≈ 9.65 µM) | 4 µg/mL (≈ 9.65 µM) | >128 µg/mL | 4 µg/mL (≈ 9.65 µM) | >128 µg/mL | >128 µg/mL | >128 µg/mL | >128 µg/mL | 0.104 µM |  |  |  |  |
